Test results from patent US6635235B1, “Bifunctional chelating agent for the design and development of site specific radiopharmaceuticals and biomolecule conjugation strategy” (The Curators of the University of Missouri, priority 1999, dated 2003).

Assay: Stability of -PH2 compounds under storage and reaction conditions
Type: physicochemical
Conditions: variety of solvents, wide pH range and temperature range
From the text: As a result of working with the NH2(CH2)3 PH2 intermediate, it was recognized that the intermediate was unexpectedly stable under a variety of storage and reaction conditions.
Furthermore, the reactivity of the —PH2 groups in these compounds toward molecules containing a wide spectrum of functional groups (including carboxylic acids, amines, thiols, and proteins) was remarkably low or non-measurable.

## NCCCP [NH2(CH2)3 PH2, 3-Aminopropylphosphine]
  stability under storage and reaction conditions: reasonably stable
